“Also recorded” adds a separate entry of the source. Read-outs that look alike come from different tables or passages of the source.
Legend:
[1] = target: T1, human leukocyte elastase (HLE) (Homo sapiens, UniProt P08246); experiment: HLE amidolytic activity (methoxysuccinyl-Ala-Ala-Pro-Val-p-nitroanilide); assay type: biochemical
T1 sequence (P08246 30-267): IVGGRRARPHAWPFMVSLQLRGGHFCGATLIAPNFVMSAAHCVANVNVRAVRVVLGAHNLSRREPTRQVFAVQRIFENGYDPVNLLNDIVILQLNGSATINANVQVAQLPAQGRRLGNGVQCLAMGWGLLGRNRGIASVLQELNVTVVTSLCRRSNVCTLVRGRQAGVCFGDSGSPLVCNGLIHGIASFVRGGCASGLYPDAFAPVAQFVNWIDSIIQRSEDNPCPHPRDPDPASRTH
Excerpt: This oligopeptide is generally assumed to occupy the first five subsites of the extended substrate binding domain in HLE.
To avoid time-dependent adsorption of HLE onto the wells of the 96-well microplates used in the amidolytic assays, the plates were pretreated with a solution of 0.2% bovine serum albumin. […] The […] concentration at which the Dixon plots intersect is a measure of Ki for the inhibitor.
The inhibitory activity of doxycycline towards amidolysis of methoxysuccinyl-Ala-Ala-Pro-Val-p-nitroanilide by HLE was also determined in the presence of 2% DMSO and no detergent, as described above for CMT-3.

[2] = system: human neutrophils (live PMN's); experiment: Neutrophil (PMN + 0.5 nM PMA)-mediated R22-ECM hydrolysis (3H-proline cpm released in 6 h); assay type: cell-based; conditions: for activity at 5 µM / activity at 25 µM / activity at 50 µM: Homo sapiens, Neutrophil; for activity at 5 µM / activity at 25 µM / activity at 50 µM / ECM HYDROLYSIS (% CONTROL): control = hydrolysis in absence of any inhibitor normalized to 100%, 6 h at 37° C.; for inhibition of ECM degradation, in words: 5-50 μM, Table 1 and FIG. 1
Excerpt: The activity of various tetracyclines was investigated employing an in vitro assay of inflammatory tissue injury in which human neutrophils are allowed to degrade a biosynthetically prepared complete interstitial stromal extracellular matrix (ECM). A neutrophil is one type of leukocyte (polymorphonuclear leukocyte). […] E. J. Roemer, K. J. Stanton, and S. R. Simon, "In Vitro Assay Systems for Inflammatory Cell-Mediated Damage to Interstitial Extracellular Matrix," In Vitro Toxicol. 7,75-81 (1994); E. J. Roemer, K. J. Stanton, and S. R. Simon, "In Vitro Assay Systems for Cell Interactions With Interstitial Extracellular Matrix," In Vitro Toxicol. 7,209-224 (1994).
The serine proteinase inhibiting activity of tetracyclines was tested using an in vitro assay of inflammatory tissue injury in which human neutrophils (live PMN's) were allowed to degrade a biosynthetically prepared complete interstitial stromal extracellular matrix (ECM) produced by cultured R22 rat heart smooth muscle cells as described by Roemer et al. (E. J. Roemer, K. J. Stanton, and S. R. Simon, "In Vitro Assay Systems for Inflammatory Cell-Mediated Damage to Interstitial Extracellular Matrix," In Vitro Toxicol. 7,75-81 (1994); E. J. Roemer, K. J. Stanton, and S. R. Simon, "In Vitro Assay Systems for Cell Interactions With Interstitial Extracellular Matrix," In Vitro Toxicol. 7,209-224 (1994)). Ten different chemically modified tetracyclines (CMTs) designated CMT-1 through CMT-10 and doxycycline, at concentrations ranging from 5 μM to 50 μM, were added to the ECM simultaneously with a suspension of 2×10^6 viable human PMN/mL in Hank's balanced salts solution (HBSS). In these studies, the ECM was metabolically radiolabeled with ^3 H-proline, and counts solubilized after six hours of incubation were measured and compared with counts released after incubation with PMN alone.

leukocyte elastase = target: T2, leukocyte elastase (Homo sapiens, UniProt P08246); experiment: Leukocyte elastase inhibitory activity; assay type: biochemical
T2 sequence (P08246 30-247): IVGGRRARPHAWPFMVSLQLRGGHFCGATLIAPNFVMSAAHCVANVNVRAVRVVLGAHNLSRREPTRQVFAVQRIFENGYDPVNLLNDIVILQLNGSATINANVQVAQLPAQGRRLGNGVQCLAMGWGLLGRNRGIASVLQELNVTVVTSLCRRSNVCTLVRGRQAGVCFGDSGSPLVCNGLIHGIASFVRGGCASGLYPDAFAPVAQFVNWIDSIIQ

MMP-8 = conditions: in vitro; read-out: K1, inhibition of MMP-8 activity in vitro; cited from earlier work
[3] = system: human neutrophils (live PMN's); conditions: cited from earlier work

## CN(C)C1C(=O)C(C(N)=O)=C(O)C2(O)C(=O)C3=C(O)c4c(O)ccc(Cl)c4C(C)(O)C3CC12 (stereo not drawn) [epi-chlorotetracycline]
[1]
  potency as inhibitors of the amidolytic activity of HLE, in words: comparably low or no potency

## Cc1c2c(c(O)c3c(O)cccc13)C(=O)C1C(O)=C(C(N)=O)C(=O)CC1C2 (stereo not drawn) [CMT-9, 4-de(dimethylamino)-12α-deoxyanhydrotetracycline]
[2]; 5 μm
  activity at 5 µM: 88%
[2]; 25 μm
  activity at 25 µM: 215%
[2]; 50 μm
  activity at 50 µM: 190%

## C[C@H]1c2cccc(O)c2C(O)=C2C(=O)[C@]3(O)C(O)=C(C(N)=O)C(=O)C[C@@H]3[C@@H](O)[C@@H]21 [CMT-8, 6-deoxy-5α-hydroxy-4-de(dimethylamino)tetracycline]
[2]
  inhibition of ECM degradation, in words: showed some inhibition of ECM degradation
[2]; 5 μm
  ECM HYDROLYSIS (% CONTROL): 96 % CONTROL
[2]; 25 μm
  ECM HYDROLYSIS (% CONTROL): 82 % CONTROL
[2]; 50 μm
  ECM HYDROLYSIS (% CONTROL): 57 % CONTROL

## CN(C)c1ccc(O)c2c1C[C@H]1C[C@H]3[C@H](N(C)C)C(O)=C(C(N)=O)C(=O)[C@@]3(O)C(O)=C1C2=O [minocycline]
Leukocyte elastase
  leukocyte elastase inhibitory activity, in words: do not exhibit substantial leukocyte elastase inhibitory activity

## tetracycline pyrazole [CMT-5]
[2]; 5 μm
  ECM HYDROLYSIS (% CONTROL): 78 % CONTROL
[2]; 25 μm
  ECM HYDROLYSIS (% CONTROL): 112 % CONTROL
[2]; 50 μm
  ECM HYDROLYSIS (% CONTROL): 102 % CONTROL
[1]
  potency as inhibitors of the amidolytic activity of HLE, in words: comparably low or no potency

## CN(C)[C@@H]1C(O)=C(C(N)=O)C(=O)[C@@]2(O)C(O)=C3C(=O)c4c(O)ccc(Cl)c4[C@@](C)(O)[C@H]3C[C@@H]12 [chlorotetracycline]
[1]
  potency as inhibitors of the amidolytic activity of HLE, in words: comparably low or no potency

## CC1(O)c2c(Cl)ccc(O)c2C(=O)C2=C(O)C3(O)C(=O)C(C(N)=O)=C(O)CC3CC21 (centres unmarked) [CMT-4, 7-chloro-4-de(dimethylamino)tetracycline]
[2]; 5 μm
  ECM HYDROLYSIS (% CONTROL): 90 % CONTROL
[2]; 25 μm
  ECM HYDROLYSIS (% CONTROL): 98 % CONTROL
[2]; 50 μm
  ECM HYDROLYSIS (% CONTROL): 130 % CONTROL

## CN(C)C1C(=O)C(C#N)=C(O)C2(O)C(=O)C3=C(O)c4c(O)cccc4C(C)(O)C3CC12 (centres unmarked) [CMT-2, tetracyclinonitrile]
[2]; 5 μm
  activity at 5 µM: 91%
[2]; 25 μm
  activity at 25 µM: 95%
[2]; 50 μm
  activity at 50 µM: 100%

## C[C@H]1c2cccc(O)c2C(=O)C2=C(O)[C@]3(O)C(=O)C(C(N)=O)=C(O)[C@@H](N(C)C)[C@@H]3[C@@H](O)[C@@H]21 [doxycycline]
[2]; 5 μm
  activity at 5 µM: 98%
[2]; 25 μm
  activity at 25 µM: 92%
[2]; 50 μm
  activity at 50 µM: 84%
[1]
  potency as inhibitors of the amidolytic activity of HLE, in words: only very weak inhibition; also recorded: only a very weak inhibitor of HLE
[1]; 2% DMSO, no detergent, 100 μM through 300 μM substrate, Dixon plot, read-out: Ki for inhibition of amidolytic activity of HLE
  Ki: ~300 µM
[1]; Dixon and Cornish-Bowden plots, FIGS. 3-5, read-out: apparent K1, inhibition of amidolysis
  Ki: > 300 µM
MMP-8
  Ki: 25 to 50 µM
Leukocyte elastase
  leukocyte elastase inhibitory activity, in words: do not exhibit substantial leukocyte elastase inhibitory activity

## CC1(O)c2cccc(O)c2C(=O)C2=C(O)C3C(=O)C(C(N)=O)=C(O)CC3CC21 (stereo not drawn) [CMT-7, 4-de(dimethylamino)-12α-deoxytetracycline]
[2]; 5 μm
  ECM HYDROLYSIS (% CONTROL): 97 % CONTROL
[2]; 25 μm
  ECM HYDROLYSIS (% CONTROL): 84 % CONTROL
[2]; 50 μm
  ECM HYDROLYSIS (% CONTROL): 100 % CONTROL

## αhd 1-PI: the major endogenous inhibitor of human leukocyte elastase
[3]
  neutrophil-mediated degradation of ECM, inhibition in words: virtually completely inhibited

## CN(C)C1C(=O)C(C(N)=O)=C(O)C2(O)C(=O)C3=C(O)c4c(O)cccc4C(C)(O)C3C(O)C12 (centres unmarked) [oxytetracycline]
[1]
  potency as inhibitors of the amidolytic activity of HLE, in words: comparably low or no potency

## CN(C)c1ccc(O)c2c1C[C@H]1C[C@H]3CC(O)=C(C(N)=O)C(=O)[C@@]3(O)C(O)=C1C2=O [CMT-10, 4-de(dimethylamino)minocycline]
[2]
  inhibition of ECM degradation, in words: showed some inhibition of ECM degradation
[2]; 5 μm
  activity at 5 µM: 101%
[2]; 25 μm
  activity at 25 µM: 85%
[2]; 50 μm
  activity at 50 µM: 80%

## CC1(O)c2cccc(O)c2C(=O)C2=C(O)C3(O)C(=O)C(C(N)=O)=C(O)C(O)C3CC21 (centres unmarked) [CMT-6, 4-hydroxy-4-de(dimethylamino)tetracycline]
[2]; 5 μm
  ECM HYDROLYSIS (% CONTROL): 109 % CONTROL
[2]; 25 μm
  ECM HYDROLYSIS (% CONTROL): 101 % CONTROL
[2]; 50 μm
  ECM HYDROLYSIS (% CONTROL): 97 % CONTROL

## CC1(O)c2cccc(O)c2C(=O)C2=C(O)C3(O)C(=O)C(C(N)=O)=C(O)CC3CC21 (centres unmarked) [CMT-1, 4-de(dimethylamino)tetracycline]
[2]; 5 μm
  ECM HYDROLYSIS (% CONTROL): 93 % CONTROL
[2]; 25 μm
  ECM HYDROLYSIS (% CONTROL): 95 % CONTROL
[2]; 50 μm
  ECM HYDROLYSIS (% CONTROL): 90 % CONTROL

## Cc1c2c(c(O)c3c(O)ccc(Cl)c13)C(=O)C1(O)C(O)=C(C(N)=O)C(=O)C(N(C)C)C1C2 (centres unmarked) [anhydrochlorotetracycline]
[1]
  potency as inhibitors of the amidolytic activity of HLE, in words: comparably low or no potency

Reference: patent US5773430A, “Serine proteinase inhibitory activity by hydrophobic tetracycline” (Research Foundation of State University of New York, priority 1997, dated 1998)
